From PubChem BioAssay AID248 (DTP/NCI, 2004)
Where “and” joins values, the source holds several entries; their conditions need not be identical. Equal values may be shown once. Inconclusive results and toxic doses are left out. Rule as the data show it: active = T/C of 150% or more; inactive = T/C below 125%.

System: L1210 leukemia ip in BDF1 mice, survival T/C
Experiment: NCI In Vivo Anticancer Drug Screen. Data for tumor model L1210 Leukemia (intraperitoneal) in B6D2F1 (BDF1) mice
Settings: endpoint: mean survival time, higher = longer survival
Method in brief: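 Read-out is survival time, reported as the treated-group measurement over the vehicle-control measurement.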

[1] = dose: 50.0 mg/kg/injection, schedule: Q01DX009 (ip), vehicle: Klucel (hydroxypropylcellulose) (HPC)
[2] = dose: 100.0 mg/kg/injection, schedule: Q01DX009 (ip), vehicle: Klucel (hydroxypropylcellulose) (HPC)
[3] = dose: 100.0 mg/kg/injection, schedule: Q04DX003 (ip), vehicle: Klucel (hydroxypropylcellulose) (HPC)
[4] = dose: 200.0 mg/kg/injection, schedule: Q01DX009 (ip), vehicle: Klucel (hydroxypropylcellulose) (HPC)
[5] = dose: 200.0 mg/kg/injection, schedule: Q04DX003 (ip), vehicle: Klucel (hydroxypropylcellulose) (HPC)
[6] = dose: 400.0 mg/kg/injection, schedule: Q01DX009 (ip), vehicle: Klucel (hydroxypropylcellulose) (HPC)
[7] = dose: 400.0 mg/kg/injection, schedule: Q04DX003 (ip), vehicle: Klucel (hydroxypropylcellulose) (HPC)
[8] = dose: 100.0 mg/kg/injection, schedule: Q04DX003 (ip), vehicle: saline with Tween-80
[9] = dose: 200.0 mg/kg/injection, schedule: Q04DX003 (ip), vehicle: saline with Tween-80
[10] = dose: 400.0 mg/kg/injection, schedule: Q04DX003 (ip), vehicle: saline with Tween-80
[11] = dose: 75.0 mg/kg/injection, schedule: Q01DX001 (ip), vehicle: saline

Measured: T/C

COc1cc(C(=Nc2ccccc2)C(=Nc2ccccc2)c2cc(OC)c(OC)c(OC)c2)cc(OC)c1OC
inactive: dose: 25.0 mg/kg/injection, schedule: Q01DX009 (ip), vehicle: Klucel (hydroxypropylcellulose) (HPC) 98 % of control | [1] 91 % of control | [2] 90 % of control | [3] 100 % of control | [4] 95 % of control and 116 % of control | [5] 97 % of control | [6] 120 % of control | [7] 96 % of control

O=P(O)(c1ccccc1)c1cccc(Cl)c1
inactive: [8] 100 % of control | [9] 91 % of control | [10] 94 % of control

O=S1c2ccccc2S(=O)c2ccccc21 (configuration not stated)
inactive: [8] 96 % of control | [9] 91 % of control | [10] 89 % of control

CN(C)CCCN1c2ccccc2Sc2ccccc21
inactive: dose: 4.6 mg/kg/injection, schedule: Q01DX009 (ip), vehicle: saline 98 % of control | dose: 9.3 mg/kg/injection, schedule: Q01DX009 (ip), vehicle: saline 105 % of control | dose: 9.37 mg/kg/injection, schedule: Q01DX009 (ip), vehicle: saline 96 % of control | dose: 18.0 mg/kg/injection, schedule: Q01DX001 (ip), vehicle: saline 107 % of control | dose: 18.0 mg/kg/injection, schedule: Q01DX009 (ip), vehicle: saline 112 % of control | dose: 18.0 mg/kg/injection, schedule: Q04DX003 (ip), vehicle: saline 116 % of control | dose: 18.75 mg/kg/injection, schedule: Q01DX009 (ip), vehicle: saline 104 % of control and 108 % of control | dose: 18.75 mg/kg/injection, schedule: Q04DX003 (ip), vehicle: saline 115 % of control | dose: 37.0 mg/kg/injection, schedule: Q01DX001 (ip), vehicle: saline 110 % of control | dose: 37.0 mg/kg/injection, schedule: Q01DX009 (ip), vehicle: saline 112 % of control | dose: 37.0 mg/kg/injection, schedule: Q04DX003 (ip), vehicle: saline 115 % of control | dose: 37.5 mg/kg/injection, schedule: Q01DX009 (ip), vehicle: saline 98 % of control and 122 % of control | dose: 37.5 mg/kg/injection, schedule: Q04DX003 (ip), vehicle: saline 102 % of control | [11] 105 % of control | dose: 75.0 mg/kg/injection, schedule: Q01DX009 (ip), vehicle: saline 122 % of control | dose: 75.0 mg/kg/injection, schedule: Q04DX003 (ip), vehicle: saline 102 % of control and 116 % of control

COC1C(O)C(C)OC(OC2CCC3(C)C(CCC4C3C(O)CC3(C)C(C5=CC(=O)OC5)CCC43O)C2)C1O (configuration not stated)
inactive: dose: 5.0 mg/kg/injection, schedule: Q01DX001 (ip), vehicle: saline 103 % of control | dose: 10.0 mg/kg/injection, schedule: Q01DX001 (ip), vehicle: saline 103 % of control | dose: 20.0 mg/kg/injection, schedule: Q01DX001 (ip), vehicle: saline 101 % of control

CCN(CC)c1ccc(Cc2cc(O)c3c(c2O)C(=O)c2ccccc2C3=O)cc1
inactive: [1] 89 % of control | [2] 104 % of control | dose: 100.0 mg/kg/injection, schedule: Q04DX002 (ip), vehicle: Klucel (hydroxypropylcellulose) (HPC) 89 % of control | dose: 200.0 mg/kg/injection, schedule: Q04DX002 (ip), vehicle: Klucel (hydroxypropylcellulose) (HPC) 89 % of control | dose: 400.0 mg/kg/injection, schedule: Q04DX002 (ip), vehicle: Klucel (hydroxypropylcellulose) (HPC) 96 % of control

N#CN(Cc1ccccc1)Cc1ccccc1
inactive: [2] 100 % of control | [3] 101 % of control | [4] 105 % of control | [5] 102 % of control | [6] 109 % of control | [7] 95 % of control

C=CCOC(=O)Oc1ccccc1Cl
inactive: [2] 92 % of control | [3] 95 % of control | [4] 89 % of control | [5] 97 % of control

O=[N+]([O-])c1cc(C=Nc2ccccc2)ccc1Cl
inactive: dose: 100.0 mg/kg/injection, schedule: Q01DX009 (ip), vehicle: saline 97 % of control | [3] 94 % of control | dose: 200.0 mg/kg/injection, schedule: Q01DX009 (ip), vehicle: saline 108 % of control | [5] 100 % of control | dose: 400.0 mg/kg/injection, schedule: Q01DX009 (ip), vehicle: saline 103 % of control | [7] 97 % of control

O=C1CCC([N+](=O)[O-])C(c2ccc3ccccc3c2)N1 (configuration not stated)
inactive: dose: 100.0 mg/kg/injection, schedule: Q01DX001 (ip), vehicle: saline with Tween-80 95 % of control | dose: 200.0 mg/kg/injection, schedule: Q01DX001 (ip), vehicle: saline with Tween-80 95 % of control | dose: 400.0 mg/kg/injection, schedule: Q01DX001 (ip), vehicle: saline with Tween-80 95 % of control

CCCCCCCCCCCCCCCCOc1ccc(C(=O)O)cc1NC(=O)CC(C)=O
inactive: [3] 92 % of control | [5] 95 % of control | [7] 92 % of control

NCCCC(=S)S
inactive: dose: 100.0 mg/kg/injection, schedule: Q04DX002 (ip), vehicle: saline 95 % of control | dose: 200.0 mg/kg/injection, schedule: Q04DX002 (ip), vehicle: saline 96 % of control and 103 % of control | dose: 400.0 mg/kg/injection, schedule: Q04DX002 (ip), vehicle: saline 96 % of control and 116 % of control

CCNP(=S)(OCC)OCC
inactive: [11] 98 % of control | dose: 150.0 mg/kg/injection, schedule: Q01DX001 (ip), vehicle: saline 89 % of control | dose: 300.0 mg/kg/injection, schedule: Q01DX001 (ip), vehicle: saline 96 % of control

Cc1c(CCO)c(=O)n2n1CCCC2
inactive: dose: 75.0 mg/kg/injection, schedule: Q01DX001 (ip), vehicle: other 108 % of control | dose: 150.0 mg/kg/injection, schedule: Q01DX001 (ip), vehicle: other 100 % of control

Nc1c(Br)cccc1C(=O)O
inactive: dose: 100.0 mg/kg/injection, schedule: Q01DX001 (ip), vehicle: saline 104 % of control | dose: 200.0 mg/kg/injection, schedule: Q01DX001 (ip), vehicle: saline 102 % of control | dose: 400.0 mg/kg/injection, schedule: Q01DX001 (ip), vehicle: saline 101 % of control

CCCCCCC/C=N/N=C/CCCCCCC
inactive: dose: 100.0 mg/kg/injection, schedule: Q01DX009 (ip), vehicle: other 97 % of control | dose: 100.0 mg/kg/injection, schedule: Q04DX003 (ip), vehicle: other 97 % of control | dose: 200.0 mg/kg/injection, schedule: Q01DX009 (ip), vehicle: other 100 % of control | dose: 200.0 mg/kg/injection, schedule: Q04DX003 (ip), vehicle: other 97 % of control | dose: 400.0 mg/kg/injection, schedule: Q01DX009 (ip), vehicle: other 112 % of control | dose: 400.0 mg/kg/injection, schedule: Q04DX003 (ip), vehicle: other 109 % of control
